How the values were obtained:
[1] = tested on: 229E human corona virus (hCoV); assay: 229E live virus assay (CPE, ATPlite readout) in MRC-5 cells; type: cell-based, hCoV-229E; settings: Human coronavirus 229E, MRC5, 144 h, read-out: 229E EC50
SARS-CoV-2 3CL-protease = SARS-CoV-2 3CL-protease (Severe acute respiratory syndrome coronavirus 2 (2019-nCoV) (SARS-CoV-2), UniProt P0DTD1); assay: SARS-CoV-2 3C-like (3CL) protease fluorescence assay (FRET); type: biochemical

Work on `[2H]C([2H])([2H])N(C(=O)C(=O)NC(C)(C)C)[C@@H](CCCC)C(=O)N1C[C@]2(C[C@H]1C#N)C(=O)Nc1ccccc12` [Compound 49] yielded an EC50 [1] of under 100 nM and an IC50 (SARS-CoV-2 3CL-protease) of under 100 nM.
Molecule `[2H]C([2H])([2H])N(C(=O)C(=O)Nc1cnc2ccccc2c1)[C@@H](CCCC)C(=O)N1C[C@]2(C[C@H]1C#N)C(=O)Nc1ccccc12` [Compound 50] has an EC50 [1] of under 100 nM and an IC50 (SARS-CoV-2 3CL-protease) of under 100 nM.
`[2H]C([2H])([2H])N(C(=O)C(=O)Nc1cnc2ccccc2c1)[C@@H](CC1CC1)C(=O)N1C[C@]2(C[C@H]1C#N)C(=O)Nc1ccccc12` [Compound 51] showed an EC50 [1] of under 100 nM and an IC50 (SARS-CoV-2 3CL-protease) of under 100 nM.
Molecule `CC(C)C[C@@H](C(=O)N1C[C@]2(C[C@H]1C#N)C(=O)Nc1ccccc12)N(C)C(=O)C(=O)Nc1nc2ccccc2[nH]1` [Compound 52] has an EC50 [1] of under 100 nM and an IC50 (SARS-CoV-2 3CL-protease) of 100 to 1000 nM.
`CC(C)C[C@@H](C(=O)N1C[C@]2(C[C@H]1C#N)C(=O)Nc1ccccc12)N(C)C(=O)C(=O)Nc1nc2ccccc2o1` [Compound 53] gave an EC50 [1] of 100 to 1000 nM and an IC50 (SARS-CoV-2 3CL-protease) of over 1000 nM.
With `[2H]C([2H])([2H])N(C(=O)C(=O)Nc1ccc(C(F)(F)F)cc1C(F)(F)F)[C@@H](CC1CC1)C(=O)N1C[C@]2(C[C@H]1C#N)C(=O)Nc1ccccc12` [Compound 68] the EC50 [1] was under 100 nM and the IC50 (SARS-CoV-2 3CL-protease) was under 100 nM.
Work on `CC(C)(C)C[C@H](NC(=O)C(=O)NC1CC1)C(=O)N1C[C@]2(C[C@H]1C#N)C(=O)Nc1ccccc12` [Compound 70] yielded an EC50 [1] of under 100 nM and an IC50 (SARS-CoV-2 3CL-protease) of under 100 nM.
`CC(C)(C)C[C@H](NC(=O)C(=O)Nc1c(F)cccc1F)C(=O)N1C[C@]2(C[C@H]1C#N)C(=O)Nc1ccccc12` [Compound 71] showed an EC50 [1] of under 100 nM and an IC50 (SARS-CoV-2 3CL-protease) of under 100 nM.
`CC(C)(C)C[C@H](NC(=O)C(=O)NC1(c2ccc(F)cc2F)CC1)C(=O)N1C[C@]2(C[C@H]1C#N)C(=O)Nc1ccccc12` [Compound 72] gave an EC50 [1] of under 100 nM and an IC50 (SARS-CoV-2 3CL-protease) of under 100 nM.
